Assay results published in patent publication US20230331707A1, “PROGRAMMED CELL NECROSIS INHIBITOR, PREPARATION METHOD THEREFOR, AND USE THEREOF” (Shanghai Institute of Organic Chemistry, Chinese Academy of …, priority 2020, published 2023).
Where two headings read alike, the source gives them in different places.

Tests used:
[1] = tested on: FADD−/− Jurkat cells; test: Inhibition of TNF-induced programmed necrosis of FADD deficient Jurkat cells (Cell Titer-Glo viability); type: cell-based; settings: for EC50: Homo sapiens, Jurkat, FADD−/− Jurkat cells; for activity of inhibition of programmed necrosis compared with GSK2982772: human FADD-deficient Jurkat cells, TNFα alone or in combination with SM164
Source text: (§1) The adopted biological assay protocol was: the effect of compounds on programmed necroptosis of TNF-induced FADD (Fas-Associated Death Domain) deficient Jurkat cells and L929 cells.
(§2) In order to verify the inhibitory effect of the compounds of the present invention on programmed cell necrosis at the cellular level, cell types that is closely related to the RIP1 pathway, namely FADD deficient Jurkat cells (human peripheral blood leukemia T cell strain) and L929 cells, were selected. Two different stimulation methods were used: tumor necrosis factor (TNFα) was used alone, or TNFα was used in combination with mitochondria-derived cysteine aspartate activator (SMAC) SM164. Cells viability was calculated by detecting chemiluminescence values, thereby obtaining the biological activity of the compound on the inhibition of programmed cell necrosis.
(§3) Methods: FADD deficient Jurkat cells: FADD deficient Jurkat cells (human peripheral blood leukemia T cell line) were cultured in vitro. After growing to the logarithmic growth phase, the cells were collected, centrifuged at 1000 rpm for 5 min, the supernatant was discarded, and the cell concentration was adjusted to 2.5×10^5/mL. Cells were seeded into 384-well plates, 40 μl per well. 5 μL of SM164 (50 nM) diluted in cell culture medium and 5 μL of each compound were added to the corresponding wells. After pretreatment at 37° C. for 1 h, 5 μL of TNFα (50 ng/mL) diluted in cell culture medium was added to each well of the stimulation group, and 5 μL of the culture medium was added to the control group. The plate was cultured in a cell incubator (37° C., 5% CO2) for 14 h, and […] of Cell Titer-Glo solution was added to each well, then incubated for 30 min at room temperature, and intracellular ATP level was measured by detecting luminescence. The unstimulated DMSO control wells were taken as 100% cell viability. L929 cells: The L929 cells (mouse fibroblasts) were cultured in vitro, digested and diluted to 6.25×10^4/ml, and the cells were seeded into 384-well plates, 40 μl per well. The plate was placed in a cell incubator (37° C., 5% CO2) for 12 hours. 5 μL of SM164 (500 nM) diluted in cell culture medium and 5 μL of each compound were added to the corresponding wells. After pretreatment at 37° C. for 1 h, 5 μL of TNFα (500 ng/mL) diluted in cell culture medium was added to each well of the stimulation group, and 5 μL of the culture medium was added to the control group. After the plate was cultured for 14 h in a cell incubator (37° C., 5% CO2), 15 μl of Cell Titer-Glo solution was added to each well. The plate was incubated at room temperature for 30 min, and intracellular ATP level was measured by detecting luminescence. The unstimulated DMSO control wells were taken as 100% cell viability. EC50 values of the compounds were calculated using Prism Graphpad statistical software.

[2] = Liver microsomal stability test, mouse; type: in vitro ADME; settings: mouse, liver microsomes, mouse liver microsomes, NADPH, 37° C.; read-out: T1/2 (min) Mouse
Source text: (§4) The adopted biological test protocol was: testing the half-life of the compound in human- or mouse-derived liver microsomes.
(§5) Liver microsomes contain many enzymes involved in drug metabolism, especially cytochrome P-450, and therefore it is one of the major tissues involved in drug metabolism in living organisms. There are some correlations between the stability of the compound in liver microsomes and the pharmacogenetic stability thereof in vivo. Therefore, the relative stability of compounds in vivo can be roughly predicted by testing the half-life of different compounds in human- or mouse-derived liver microsomes. The specific methods were as follows:
(§6) Methods: 0.75 μL of 0.5 mM samples (compounds to be tested and control verapamil), 9.38 μL of 20 mg/mL liver microsomes (Human and Mouse) were taken and added to 239.88 μL PBS (on ice), and divided into 30 μL/tube samples respectively. The samples were incubated at 37° C. in a constant temperature water bath for 5 min, and then all samples were taken out. At zero-time, control group was added with 90 μL of ice acetonitrile first, and then added with 15 μL of 3 mM NADPH solution sequentially, and incubated at 37° C. in a constant temperature water bath. The corresponding samples were taken out after 5 min, 10 min, 20 min, 30 min and 60 min, respectively, and quenched by adding 90 μL of ice acetonitrile. All samples were centrifuged at 10000 rpm for 10 min, and the supernatants were taken and placed in a liquid phase vial waiting for LC-MS analysis.

[3] = Liver microsomal stability test, human; type: in vitro ADME; settings: human, liver microsomes, human liver microsomes, NADPH, 37° C.; read-out: T1/2 (min) Human
Source text: as §4, §5, §6

[4] = tested on: L929 cells; test: Inhibition of TNF-induced programmed necrosis of L929 cells (Cell Titer-Glo viability); type: cell-based, mouse; settings: Mus musculus, L929, L929 cells
Source text: as §1, §2, §3

[5] = 14 h, stimulated with TNFα + SM164, read-out: EC50 (μM) FADD−/− Jurkat cells (human) TNFα + SM164
[6] = stimulated with TNFα alone, read-out: EC50 (μM) FADD−/− Jurkat cells (human) TNFα
[7] = stimulated with TNFα + SM164, read-out: EC50 (μM) L929 cells (mouse) TNFα + SM164
[8] = stimulated with TNFα alone, read-out: EC50 (μM) L929 cells (mouse) TNFα

| SMILES | EC50 [1, 5] | EC50 [1, 6] | half-life at 1 µM [2] | half-life at 1 µM [3] | EC50 [4, 7] | EC50 [4, 8] | activity of inhibition of programmed necrosis compared with GSK2982772 [1] |
| --- | --- | --- | --- | --- | --- | --- | --- |
| Nc1ncnc2c1ncn2-c1ccc(CNC(=O)c2cn(Cc3ccccc3)cn2)cc1 [ZSQ-21-13] | 39 nM | 42.7 nM | 99 min | 577 min | – | – | – |
| Cn1ncc(C(=O)NCc2ccc(-n3ccc4c(N)ncnc43)cc2)c1Cc1ccccc1 [QY-10-39, N-(4-(4-amino-7H-pyrrolo[2,3-d]pyrimidine-7-yl)benzyl)-5-benzyl-1-methyl-1H-pyrazole-4-carboxamide] | 2.95 nM | 0.07 nM | 25.7 min | – | 96.1 nM | 10 nM | – |
| Cn1ncc(C(=O)NCc2ccc(-n3cnc4cc(C(=O)NCCN5CCOCC5)ccc43)cc2)c1Cc1ccccc1 [QY-11-68B] | 2.96 nM | 0.696 nM | 34.7 min | – | 83.4 nM | 20.5 nM | – |
| Cn1ncc(C(=O)NC(C)(C)c2ccc(-n3cnc4c(N)ncnc43)cc2)c1Cc1ccccc1 [QY-12-102] | 28.5 nM | 7.52 nM | – | – | 6960 nM | 550 nM | – |
| CNC(=O)c1ccc2c(c1)ncn2-c1ccc(CC(=O)N(C)Cc2cc(F)cc(F)c2F)cc1 [QY-5-40, N-methyl-1-(4-(2-(methyl(2,3,5-trifluorobenzyl)amino)-2-oxoethyl)phenyl)-1H-benzo[d]imidazol-5-formamide] | > 10000 nM | 2500 nM | – | – | > 10000 nM | 5000 nM | – |
| Cn1nc2c(c1Cc1ccccc1)C(=O)N(Cc1ccc(-n3cnc4c(N)ncnc43)cc1)CC2 [ZSQ-22-96] | 2.26 nM | 0.203 nM | – | – | 38.6 nM | 8.38 nM | – |
| CNC(=O)c1ccc2c(ccn2-c2ccc(CNC(=O)c3ncc(Cc4ccccc4)o3)cc2)c1 [XHJ-2-88] | 380 nM | 70.1 nM | – | – | 3980 nM | 831 nM | – |
| COc1ccc2ncn(-c3ccc(CNC(=O)c4nnn(C)c4Cc4ccccc4)cc3)c2n1 [ET-0935] | 0.244 nM | 0.0235 nM | – | – | 0.001 nM | 0.001 nM | stronger activity |
| C[C@@H](NC(=O)c1cnn(C)c1Cc1ccccc1)c1ccc(-n2cnc3c(N)ncnc32)cc1 [QY-12-97] | 132 nM | 36.1 nM | – | – | 219 nM | 51.9 nM | – |
| CNC(=O)c1ccc2c(c1)ncn2-c1ccc(CNC(=O)c2cc(Cc3ccccc3)n(C)n2)cc1 [QY-7-2B, 1-(4-((5-benzyl-1-methyl-1H-pyrazole-3-carboxamido)methyl)phenyl)-N-methyl-1H-benzo[d]imidazol-5-carboxamide] | 43.9 nM | 5.12 nM | – | – | 2020 nM | 312 nM | – |
| Nc1ncnc2c1ncn2-c1ccc(CNC(=O)c2ccc(Cl)n2Cc2ccccc2)cc1 [ZSQ-21-18] | 80.6 nM | 6.57 nM | 30.1 min | 8.6 min | – | – | – |
| Cn1nc(C(=O)NCc2ccc(-n3ccc4c(N)ncnc43)cc2)cc1Cc1ccccc1 [QY-10-21, N-(4-(4-amino-7H-pyrrolo[2,3-d]pyrimidin-7-yl)benzyl)-5-benzyl-1-methyl-1H-pyrazol-3-carboxamide] | 299 nM | 49 nM | – | – | > 10000 nM | > 10000 nM | – |
| Cn1ncc(C(=O)NCc2ccc(-c3ncnc4[nH]ccc34)cc2)c1Cc1ccccc1 [QY-11-80] | 482 nM | 35 nM | – | – | 3460 nM | 1970 nM | – |
| Nc1ncnc2c1ccn2-c1ccc(CNC(=O)c2cc(Cc3ccccc3)on2)cc1 [QY-8-48] | > 10000 nM | 972 nM | – | – | > 10000 nM | > 10000 nM | – |
| Cn1nc(C(=O)NCc2ccc(-n3ccc4c(N)nccc43)cc2)cc1Cc1ccccc1 [ZSQ-16-3] | > 10000 nM | 361 nM | – | – | > 10000 nM | 2320 nM | – |
| C[C@H](NC(=O)c1cnn(C)c1Cc1ccccc1)c1ccc(-n2cnc3c(N)ncnc32)cc1 [QY-13-31] | 0.305 nM | 0.084 nM | – | – | 0.553 nM | 0.437 nM | stronger activity |
| COc1cnc2c(c1)ncn2-c1ccc(CNC(=O)c2nnn(C)c2Cc2ccccc2)cc1 [ET-0934] | 15.5 nM | 0.489 nM | – | – | 558 nM | 16.6 nM | – |
| COc1ccc2ncn(-c3ccc(CNC(=O)c4cnn(C)c4Cc4ccccc4)cc3)c2c1 [QY-11-102B] | 0.306 nM | 0.0133 nM | – | – | 0.424 nM | 0.0278 nM | – |
| Nc1ncnc2c1ncn2-c1ccc(CNC(=O)c2n[nH]c3ncc(C(F)(F)C(F)(F)F)cc23)cc1 [QY-9-77, N-(4-(6-amino-9H-purin-9-yl)benzyl)-5-(perfluoroethyl)-1H-pyrazolo[3,4-b]pyridine-3-carboxamide] | 171 nM | 9.04 nM | – | – | 5000 nM | 344 nM | – |
| Cn1ncc(C(=O)NCc2ccc(-n3cnc4ccc(C(=O)NCCN5CCOCC5)cc43)cc2)c1Cc1ccccc1 [QY-11-68A] | 3.79 nM | 0.581 nM | – | – | 1.58 nM | 161 nM | – |
| Cn1nnc(C(=O)NCc2ccc(-n3cnc4cc(C#N)ccc43)cc2)c1Cc1ccccc1 [QY-15-59] | – | 0.00767 nM | – | – | 0.001 nM | 0.001 nM | stronger activity |
| CNC(=O)c1ccc2c(c1)ncn2-c1ccc(CNC(=O)c2n[nH]c(Cc3ccccc3)n2)cc1 [ZSQ-13-46] | > 10000 nM | > 10000 nM | – | – | > 10000 nM | > 10000 nM | – |
| Nc1ncnc2c1ccn2-c1ccc(CNC(=O)c2ncc(Cc3ccccc3)o2)cc1 [QY-8-30, N-(4-(4-amino-7H-pyrrolo[2,3-d]pyrimidine-7-yl)benzyl)-5-benzyloxazol-2-carboxamide] | 13 nM | 11.2 nM | – | – | 6300 nM | 829 nM | – |
| CNC(=O)c1ccc2c(c1)ncn2-c1ccc(CC(=O)NC(C)(C)C(=O)N2CCCC2c2ccc(C)cc2)cc1 (stereo not drawn) [QY-8-42] | > 10000 nM | > 10000 nM | – | – | > 10000 nM | > 10000 nM | – |
| CNC(=O)c1ccc2c(c1)ncn2-c1ccc(CC(=O)N2CCCC2c2ccccc2)cc1 (stereo not drawn) [QY-7-65, N-methyl-1-(4-(2-oxo-2-(2-phenylpyrrolidin-1-yl)ethyl)phenyl)-1H-benzo[d]imidazol-5-carboxamide] | > 10000 nM | > 10000 nM | – | – | > 10000 nM | > 10000 nM | – |
| CNC(=O)c1ccc2c(c1)ncn2-c1ccc(CNC(=O)c2cn(Cc3ccccc3)nn2)cc1 [ZSQ-13-35] | 1590 nM | 233 nM | – | – | > 10000 nM | > 10000 nM | – |
